Assay results as given in patent US20250100947A1, “NITROUS OXIDE INHIBITOR” (His Majesty the King in Right of New Zealand Acting Through …, priority 2021, published 2025).

Columns and labels:
[1] = system: N2O emissions from urine-treated pasture soil; test: Field trial, static chamber N2O emissions from simulated cattle urine patches; conditions: for Net emitted: control subtracted
From the text: A trial site was fenced off and stock excluded for about 14 weeks, until the commencement of the field trials, to avoid interference from fresh dung and urine inputs and reduce spatial heterogeneity/variability from the previous uneven deposition of dung and urine.
Approximately two weeks before the commencement of the trial, pasture was mown to 50 mm height, 4 soil samples (to 100 mm depth) were collected for physicochemical characterisation and Field plots were established in a randomised complete block design with 5 treatments as shown in Table 1. Plot size was 2.5×2.5 m for all treatments with an additional buffer area of at least 0.5 m between adjacent plots.
Natural urine deposition was simulated with 2 L cattle urine (containing 8.35 g N L^−1) in large static chambers allowing for urine edge-effect. All solutions containing a N2O inhibitor were applied at the same rate (30 mL/Chambers; 600 L/ha). For all urine treatments, 2 L urine was poured to the central point of the chamber base area at a height of approximately 1.2 m and allowed to spread naturally. To mimic the “Spikey®” urine patch treatment, a spot-sprayer system (supplied by Pastoral Robotics Limited) was used for treating the urine patch in the large chambers. All the inhibitor compositions were applied to the relevant treatments within 4 h after urine application.
A static chamber technique was used to measure N2O emissions, and the methodology was based on that used in a previous published study on N2O emissions (Luo et al 2015). One week before the trial began, static chamber bases (80 cm diameter) were inserted into the soil. Herbage within the chamber base and the ring areas was cut to 50 mm above ground level before the application of the treatments.
Pre-treatment gas flux was taken from each chamber a day before the application of treatments to determine the spatial variability of background of N2O flux between the plots and to assist with interpretation of patterns of N2O flux from individual sampling plots post treatment application as a covariate for statistical analysis of post-treatment emissions.
Post treatment gas measurements were carried out at 2, 24 and 72 h after application of the urine and inhibitor compositions, twice a week for the first 8 weeks and thereafter weekly. The measurements were continued until the N2O flux values for treatment plots reached the background levels measured in the control plots. During weekly phases of N2O flux measurement, additional sampling occurred as soon as practical following rainfall events of greater than 10 mm of rain in the previous 24 h. On each sampling day, N2O measurements were carried out between 1000 and 1200 h. Gas samples from chamber headspace were taken during a cover period of 100 minutes at times t0, […] (or similar). Two background atmosphere samples were also taken on each sampling day at each site. […] The measurements of N2O emission from the treatment plots continued until the first week of September. During this period, 3 pasture harvests were taken, and herbage samples analysed for N content.
Nitrous oxide concentration of gas samples were analysed by gas chromatograph using a Shimadzu GC-17a gas chromatograph equipped with a 63Ni-electroncapture detector (oven, valve and detector temperatures were operated at 65, 100 and 280° C., respectively, using oxygen-free N as a carrier gas and connected to an automatic sampler capable of handling up to 120 samples, and a SRI 8610 automated gas chromatograph. Chamber temperatures were recorded at the beginning and end of the cover period and the average of the two readings were considered the chamber temperature for calculating gas flux. The increase in N2O concentration within the chamber headspace, for the gas samples collected at t0, t50 and t100 was generally linear (R2>0.90). Therefore, the hourly N2O fluxes will be calculated using linear regression and the ideal gas law according to Equation 1: […]

[2] = system: NO3^− leaching from grazed pasture soil; test: Field lysimeter study of nitrate leaching from cow urine; conditions: for % Reduction of leaching due to inhibitor: compared to the urine only treatment, P<0.05; for Total leaching: cow urine 600 kg N ha^−1, inhibitor applied within 1 hour, DCD at 10 kg ha^−1, urine alone 358
Experimental: A field lysimeter study was conducted to examine the effects of albendazole sulfoxide on NO3^− leaching resulting from cow urine applied to a grazed pasture (at a loading rate of about 600 kg N ha^−1). The field lysimeter experiment was a randomized complete block design with the following treatments: • Control (no urine and no inhibitor) • Urine alone (600 kg N ha^−1) • Urine plus DCD (DCD solution at 10 kg ha^−1) • Urine plus albendazole sulfoxide (supplied by AgResearch Palmerston North)
Urine was collected from dairy cows that had been grazing an established ryegrass-white clover pasture. The cow urine was bulked and held at 4° C. for a few days prior to application. The urine was applied in a single application at an N loading rate of 600 kg N ha^−1 and a hydraulic loading rate of 10 L m^−2 to simulate dairy cow urine deposition. […] The treatments were replicated 6 times.
These urine and inhibitor treatments were also simultaneously applied to associated 0.5 m^2 plots so that soil samples could be taken throughout the trial to monitor mineral N transformations and moisture levels.
Leachate volumes were measured from the lysimeters when drainage occurred over the drainage period (May-October). Subsamples of leachate were collected and frozen at −20° C. prior to analysis for nitrate N(NO3^−N) and ammonium N(NH4^+—N) using a Skalar SAN^++ segmented auto flow analyser (Skalar Analytical B.V., Breda, Netherlands).

[3] = system: soil potential denitrification (DEA) enzyme activity; test: Soil denitrification enzyme activity (DEA) short-term incubation; format: biochemical
Experimental: Short-term incubation studies were conducted to determine the effect of the compound of the invention on soil potential denitrification (DEA) enzyme activity. Details of each assay are described in Zhong et al. (2015, 2016).
The denitrification assay involved testing the effect of five ALBSO treatments: 0 (water only), carrier (formic acid only), low (0.011 μg ALBSO g^−1 dry soil), high (0.046 μg ALBSO g^−1 dry soil) and very high (0.91 μg ALBSO g^−1 dry soil) at a common N rate delivered as KNO3.
The ALBSO treatments were formulated with an absolute minimum amount of formic acid needed to just dissolve the required amount of ALBSO into solution. Identical amounts of formic acid were used to formulate the carrier, low, high and very high ALBSO treatments, with the carrier containing only formic acid and water. The pH of carrier, low, high and very high ALBSO treatment solutions was identical and mildly acidic.
After a 4-hour incubation period, N2O concentrations were lower (P<0.008) for incubation vessels that had been treated with ALBSO. […] Typically, results for this kind of incubation become unreliable after 6 hours, however, the 8 hour sampling in case the high level of N addition allowed for a longer period of microbial activity.
A further incubation was performed to test the effect of the carrier as well as the high rate of ALBSO on denitrification enzyme activity.
The final incubation included a treatment where acetylene was not added. The use of acetylene gives further information on whether the ALBSO effect on denitrification is due to effects on enzymes linked to nirK and nirS (with acetylene) or nosZ (without acetylene) genes. […] Letters refer to ALBSO effects within acetylene treatments (LSD 5.3, n=3).

[4] = Urine + high concentration ALBSO (900 μg), UA1
[5] = Urine + low concentration ALBSO (266 μg), UA2

For CCC[S+]([O-])c1ccc2[nH]c(NC(=O)OC)nc2c1 (stereo not drawn) [ALBSO, methyl [5-(propane-1-sulfinyl)-1H-benzoimidazol-2-yl]-carbamate], the Total emitted ([1]; Urine 2 L + high concentration ALBSO (900 μg in 0.054M formic acid), UA1, cumulative over 4 months) was 3703 g N2O—N, the Total emitted ([1]; Urine 2 L + low concentration ALBSO (266 μg in 0.054M formic acid), UA2, cumulative over 4 months) was 3147 g N2O—N and the “EF3 (% of applied N emitted)” value [1, 4] was 0.84 % of applied N emitted. The Net emitted [1, 4] was 2807 g N2O—N, the “EF3 (% of applied N emitted)” value [1, 5] was 0.68 % of applied N emitted and the Net emitted [1, 5] was 2251 g N2O—N. For the same compound, the “Emissions from treated urine” value ([1]; urine treated with low concentration ALBSO composition) was 3147 g N2O—N ha^−1, the “% Reduction of leaching due to inhibitor” value [2] was 20% and the Total leaching [2] was 289 kg NO3^−—N ha^−1. For the same compound, the “ppm N2O after 4 h” value ([3]; High (0.046 μg ALBSO g^−1 dry soil), first incubation, n=3, H2O 138) was 102 ppm N2O, the “ppm N2O after 8 h” value ([3]; High (0.046 μg ALBSO g^−1 dry soil), first incubation, H2O 236) was 217 ppm N2O and the “N2O concentration after 4-hour incubation, acetylene not added” value ([3]; High ALBSO, final incubation, n=3, Acetylene No, H2O 97.3) was 84.7a ppm N2O. For the same compound, the “N2O concentration after 4-hour incubation, acetylene added” value ([3]; High ALBSO, final incubation, n=3, Acetylene Yes, H2O 96.9) was 90.9a ppm N2O, the “ppm N2O after 4 h” value ([3]; High rate of ALBSO, further incubation with carrier, n=4, H2O 97) was 90 ppm N2O and the “ppm N2O after 8 h” value ([3]; High rate of ALBSO, further incubation with carrier, n=4, H2O 137) was 131 ppm N2O. For the same compound, the “ppm N2O after 4 h” value ([3]; Low (0.011 μg ALBSO g^−1 dry soil), first incubation, n=3, H2O 138) was 96 ppm N2O, the “ppm N2O after 8 h” value ([3]; Low (0.011 μg ALBSO g^−1 dry soil), first incubation, H2O 236) was 233 ppm N2O and the “ppm N2O after 4 h” value ([3]; Very High (0.91 μg ALBSO g^−1 dry soil), first incubation, n=3, H2O 138) was 86 ppm N2O. For the same compound, the “ppm N2O after 8 h” value ([3]; Very High (0.91 μg ALBSO g^−1 dry soil), first incubation, H2O 236) was 232 ppm N2O, the “N2O concentrations after 4-hour incubation, treated vs untreated vessels” value ([3]; all ALBSO amounts, P<0.008, 28° C., anaerobic) was “lower” and the “Effect on reducing N2O over both acetylene treatments” value ([3]; final incubation, P=0.005) was “significant effect of ALBSO on reducing N2O”.
For N#CN=C(N)N [DCD, dicyandiamide, reference compound], the Total emitted ([1]; Urine 2 L (16.70 g N) + DCD (0.25 g N), UDCD, cumulative over 4-month measurement period) was 3142 g N2O—N, the “EF3 (% of applied N emitted)” value ([1]; Urine + DCD (0.25 g N), UDCD) was 0.67 % of applied N emitted and the Net emitted ([1]; Urine + DCD (0.25 g N), UDCD) was 2246 g N2O—N. The “Emissions from treated urine” value ([1]; urine treated with DCD) was 3142±300 g N2O—N ha^−1, the “% Reduction of leaching due to inhibitor” value [2] was 30% and the Total leaching [2] was 253 kg NO3^−—N ha^−1.
